Data reported in the NIST ThermoML archive (doi:10.1021/je800925v).

Assay: xn = mol fraction of the nth substance listed
Details: Liquid

CCCCCCCCCC [decane] + CCO
Details	mass density [kg/m3]	viscosity [mPa·s]
273.15 K, x2 = 0.098	746.5	1.236
273.15 K, x2 = 0.198	748.3	1.257
273.15 K, x2 = 0.301	750.7	1.273
273.15 K, x2 = 0.397	753.8	1.328
273.15 K, x2 = 0.501	757.4	1.429
273.15 K, x2 = 0.602	762.7	1.523
273.15 K, x2 = 0.694	767.4	1.53
273.15 K, x2 = 0.799	774.9	1.565
273.15 K, x2 = 0.905	787.7	1.639
275.65 K, x2 = 0.098	744.6	1.181
275.65 K, x2 = 0.198	746.4	1.2
275.65 K, x2 = 0.301	748.7	1.213
275.65 K, x2 = 0.397	751.8	1.263
275.65 K, x2 = 0.501	755.4	1.351
275.65 K, x2 = 0.602	760.7	1.432
275.65 K, x2 = 0.694	765.4	1.448
275.65 K, x2 = 0.799	772.9	1.486
275.65 K, x2 = 0.905	785.7	1.557
278.15 K, x2 = 0.098	742.7	1.13
278.15 K, x2 = 0.198	744.4	1.148
278.15 K, x2 = 0.301	746.8	1.158
278.15 K, x2 = 0.397	749.9	1.203
278.15 K, x2 = 0.501	753.4	1.281
278.15 K, x2 = 0.602	758.7	1.353
278.15 K, x2 = 0.694	763.3	1.374
278.15 K, x2 = 0.799	770.9	1.412
278.15 K, x2 = 0.905	783.6	1.48
280.65 K, x2 = 0.098	740.8	1.083
280.65 K, x2 = 0.198	742.5	1.099
280.65 K, x2 = 0.301	744.8	1.107
280.65 K, x2 = 0.397	747.9	1.147
280.65 K, x2 = 0.501	751.5	1.217
280.65 K, x2 = 0.602	756.7	1.282
280.65 K, x2 = 0.694	761.3	1.305
280.65 K, x2 = 0.799	768.8	1.344
280.65 K, x2 = 0.905	781.6	1.408
283.15 K, x2 = 0.098	738.9	1.038
283.15 K, x2 = 0.198	740.6	1.053
283.15 K, x2 = 0.301	742.9	1.06
283.15 K, x2 = 0.397	746	1.096
283.15 K, x2 = 0.501	749.5	1.159
283.15 K, x2 = 0.602	754.7	1.219
283.15 K, x2 = 0.694	759.3	1.242
283.15 K, x2 = 0.799	766.8	1.28
283.15 K, x2 = 0.905	779.5	1.341
285.65 K, x2 = 0.098	737	0.9963
285.65 K, x2 = 0.198	738.7	1.01
285.65 K, x2 = 0.301	741	1.015
285.65 K, x2 = 0.397	744	1.048
285.65 K, x2 = 0.501	747.5	1.105
285.65 K, x2 = 0.602	752.7	1.158
285.65 K, x2 = 0.694	757.3	1.183
285.65 K, x2 = 0.799	764.7	1.22
285.65 K, x2 = 0.905	777.4	1.278
288.15 K, x2 = 0.098	735	0.9574
288.15 K, x2 = 0.198	736.7	0.9702
288.15 K, x2 = 0.301	739	0.9738
288.15 K, x2 = 0.397	742	1.003
288.15 K, x2 = 0.501	745.5	1.056
288.15 K, x2 = 0.602	750.6	1.104
288.15 K, x2 = 0.694	755.2	1.128
288.15 K, x2 = 0.799	762.7	1.163
288.15 K, x2 = 0.905	775.3	1.218
290.65 K, x2 = 0.098	733.1	0.9207
290.65 K, x2 = 0.198	734.8	0.9321
290.65 K, x2 = 0.301	737	0.9348
290.65 K, x2 = 0.397	740	0.9608
290.65 K, x2 = 0.501	743.5	1.009
290.65 K, x2 = 0.602	748.6	1.053
290.65 K, x2 = 0.694	753.1	1.076
290.65 K, x2 = 0.799	760.6	1.11
290.65 K, x2 = 0.905	773.3	1.162
293.15 K, x2 = 0	731	0.9133
293.15 K, x2 = 0.098	731.2	0.8862
293.15 K, x2 = 0.198	732.8	0.8973
293.15 K, x2 = 0.301	735.1	0.8982
293.15 K, x2 = 0.397	738	0.9215
293.15 K, x2 = 0.501	741.5	0.966
293.15 K, x2 = 0.602	746.6	1.006
293.15 K, x2 = 0.694	751.1	1.028
293.15 K, x2 = 0.799	758.5	1.061
293.15 K, x2 = 0.905	771.2	1.109
295.65 K, x2 = 0.098	729.4	0.8534
295.65 K, x2 = 0.198	730.9	0.8635
295.65 K, x2 = 0.301	733.1	0.8638
295.65 K, x2 = 0.397	736	0.8848
295.65 K, x2 = 0.501	739.5	0.9255
295.65 K, x2 = 0.602	744.5	0.962
295.65 K, x2 = 0.694	749	0.983
295.65 K, x2 = 0.799	756.5	1.014
295.65 K, x2 = 0.905	769.1	1.06
298.15 K, x2 = 0	727.2	0.8509
298.15 K, x2 = 0.098	727.3	0.823
298.15 K, x2 = 0.198	728.9	0.8318
298.15 K, x2 = 0.301	731.1	0.8314
298.15 K, x2 = 0.397	734	0.8501
298.15 K, x2 = 0.501	737.5	0.8872
298.15 K, x2 = 0.602	742.5	0.9216
298.15 K, x2 = 0.694	747	0.9407
298.15 K, x2 = 0.799	754.4	0.9698
298.15 K, x2 = 0.905	766.9	1.013
